Here are results for 18 compounds from patent US20230086702A1, “SUBSTITUTED 2-AMINO-PYRAZOLYL-[1,2,4]TRIAZOLO[1,5A]PYRIDINE DERIVATIVES AND USE THEREOF” (The Johns Hopkins University, priority 2019, published 2023).

In one test the target is T1, DLK (Homo sapiens, UniProt Q12852).
T1 construct: 10 nM DLK, catalytic domain, Carna Biosiences; purchased Carna Biosciences ('Carna Biosiences' [sic])
T1 sequence (Q12852 125-366 limits assumed): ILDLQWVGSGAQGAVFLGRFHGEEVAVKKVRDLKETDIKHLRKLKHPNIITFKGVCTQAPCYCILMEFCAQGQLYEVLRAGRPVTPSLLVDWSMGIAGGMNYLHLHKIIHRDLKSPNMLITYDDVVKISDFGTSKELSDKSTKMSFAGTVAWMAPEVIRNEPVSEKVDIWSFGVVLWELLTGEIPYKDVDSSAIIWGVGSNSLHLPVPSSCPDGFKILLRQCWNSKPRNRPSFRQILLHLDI
Nature of the test: DLK biochemical assay (TR-FRET, MKK7 phosphorylation). The method in brief: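 DLK catalytic domain (10 nM) phosphorylates His-MKK7 (15 nM) at 60 μM ATP for 90 min at RT in pH 7.5 Hepes buffer (final concentrations). Phospho-T275/S277 is detected by TR-FRET (Eu anti-phospho donor, XL665 anti-His acceptor) after 16 h at 37° C (1536 format) or 4° C (384 format).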

A further test has as its target T2, LZK (Homo sapiens, UniProt O43283).
T2 construct: 10 nM LZK, catalytic domain, Carna Biosiences in assay buffer; purchased Carna Biosciences ('Carna Biosiences' [sic])
T2 sequence (O43283 168-409 limits assumed): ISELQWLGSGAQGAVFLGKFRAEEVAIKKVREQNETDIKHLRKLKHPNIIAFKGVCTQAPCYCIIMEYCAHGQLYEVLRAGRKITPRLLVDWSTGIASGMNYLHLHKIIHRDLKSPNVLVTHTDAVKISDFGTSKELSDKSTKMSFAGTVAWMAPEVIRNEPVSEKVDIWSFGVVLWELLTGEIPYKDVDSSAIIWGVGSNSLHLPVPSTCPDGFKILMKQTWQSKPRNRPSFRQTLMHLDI
Nature of the test: LZK biochemical assay (TR-FRET, MKK7 phosphorylation). An outline of the steps: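 LZK catalytic domain (10 nM) phosphorylates His-MKK7 (15 nM) with 15 µM ATP, all final, for 90 min at RT in HEPES buffer pH 7.5 with MgCl2. Phospho-T275/S277 detected by TR-FRET (Eu anti-phospho donor, XL665 anti-His acceptor) after 16 h at 32 °C in EDTA stop buffer. Inhibition lowers the 665/Eu ratio.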
A general note: TR-FRET usually uses a lanthanide donor and a delayed reading to cut background.

As to `CCC(c1ccc(OC(F)(F)F)nc1)n1cc(-c2cc(-c3cnn(CC(F)(F)F)c3)n3nc(N)nc3c2)cn1` (single isomer, unassigned) [II-115, 5-[1-(2,2,2-Trifluoroethyl)-1H-pyrazol-4-yl]-7-(1-{1-[6-(trifluoromethoxy)pyridin-3-yl]propyl}-1H-pyrazol-4-yl)[1,2,4]triazolo[1,5-a]pyridin-2-amine], the IC50 at DLK amounted to 67 nM; against LZK it was 138 nM.
Consider `CC[C@@H](c1ccc(OC(F)(F)F)nc1)n1cc(-c2cc(-c3cnn(CC(F)(F)F)c3)n3nc(N)nc3c2)cn1` (single isomer, unassigned) [II-116, 5-[1-(2,2,2-Trifluoroethyl)-1H-pyrazol-4-yl]-7-(1-{1-[6-(trifluoromethoxy)pyridin-3-yl]propyl}-1H-pyrazol-4-yl)[1,2,4]triazolo[1,5-a]pyridin-2-amine], for which the IC50 worked out at 9.7 nM against DLK and 22 nM against LZK.
The like results for `Nc1nc2c(-c3cnn(CC(F)(F)F)c3)cc(-c3cnn(C(c4ccc(C(F)(F)F)nc4)C4CCOCC4)c3)cn2n1` (single isomer, unassigned) [II-118, 6-(1-{Tetrahydro-2H-pyran-4-yl[6-(trifluoromethyl)pyridin-3-yl]methyl}-1H-pyrazol-4-yl)-8-[1-(2,2,2-trifluoroethyl)-1H-pyrazol-4-yl][1,2,4]triazolo[1,5-a]pyridin-2-amine] were, in that order, 0.6 nM and 2.6 nM.
On to `Nc1nc2c(-c3cnn(CC(F)(F)F)c3)cc(-c3cnn(C(c4ccc(C(F)(F)F)nc4)C4CCOCC4)c3)cn2n1` (single isomer, unassigned) [II-119, 6-(1-{Tetrahydro-2H-pyran-4-yl[6-(trifluoromethyl)pyridin-3-yl]methyl}-1H-pyrazol-4-yl)-8-[1-(2,2,2-trifluoroethyl)-1H-pyrazol-4-yl][1,2,4]triazolo[1,5-a]pyridin-2-amine], for which the IC50 is 4.7 nM at DLK and 16 nM against LZK.
In the case of `CCC(c1ccc(C(F)(F)F)cc1)n1cc(-c2cc(-c3cnn(CC(F)(F)F)c3)n3nc(N)nc3c2)cn1` (single isomer, unassigned) [II-130, 5-[1-(2,2,2-Trifluoroethyl)-1H-pyrazol-4-yl]-7-(1-{1-[4-(trifluoromethyl)phenyl]propyl}-1H-pyrazol-4-yl)[1,2,4]triazolo[1,5-a]pyridin-2-amine], the IC50 amounted to 120 nM against DLK and 670 nM on LZK.
As for `CCC(c1ccc(C(F)(F)F)cc1)n1cc(-c2cc(-c3cnn(CC(F)(F)F)c3)n3nc(N)nc3c2)cn1` (single isomer, unassigned) [II-131, 5-[1-(2,2,2-Trifluoroethyl)-1H-pyrazol-4-yl]-7-(1-{1-[4-(trifluoromethyl)phenyl]propyl}-1H-pyrazol-4-yl)[1,2,4]triazolo[1,5-a]pyridin-2-amine], the IC50 on DLK turned out to be 25 nM; against LZK, 165 nM.
For `CCC(c1ccc(C(F)(F)F)cc1)n1cc(-c2cc(-c3cnn(C4CCCC4)c3)n3nc(N)nc3c2)cn1` (single isomer, unassigned) [II-133, 5-(1-Cyclopentyl-1H-pyrazol-4-yl)-7-(1-{1-[4-(trifluoromethyl)phenyl]propyl}-1H-pyrazol-4-yl)[1,2,4]triazolo[1,5-a]pyridin-2-amine], the IC50 amounted to 45 nM against DLK and 130 nM against LZK.
For `CCC(c1ccc(C(F)(F)F)cc1)n1cc(-c2cc(-c3cnn(C4CCCC4)c3)n3nc(N)nc3c2)cn1` (single isomer, unassigned) [II-134, 5-(1-Cyclopentyl-1H-pyrazol-4-yl)-7-(1-{1-[4-(trifluoromethyl)phenyl]propyl}-1H-pyrazol-4-yl)[1,2,4]triazolo[1,5-a]pyridin-2-amine], the IC50 was 32 nM against DLK and 44 nM at LZK.
The like results for `COc1cc(C(C(C)C)n2cc(-c3cc(-c4cnn(CC(F)(F)F)c4)n4nc(N)nc4c3)cn2)ccn1` (single isomer, unassigned) [II-137, 7-{1-[1-(2-Methoxypyridin-4-yl)-2-methylpropyl]-1H-pyrazol-4-yl}-5-[1-(2,2,2-trifluoroethyl)-1H-pyrazol-4-yl][1,2,4]triazolo[1,5-a]pyridin-2-amine] were, in that order, 40 nM and 720 nM.
In the case of `CC(C)C(c1ccc(C(F)(F)F)nc1)n1cc(-c2cc(-c3cnn(CC(F)(F)F)c3)n3nc(N)nc3c2)cn1` (single isomer, unassigned) [II-141, 7-(1-{2-Methyl-1-[6-(trifluoromethyl)pyridin-3-yl]propyl}-1H-pyrazol-4-yl)-5-[1-(2,2,2-trifluoroethyl)-1H-pyrazol-4-yl][1,2,4]triazolo[1,5-a]pyridin-2-amine], the IC50 on DLK is 23 nM; on LZK, 140 nM.
On the same counts, the results for `CC(C)C(c1ccc(C(F)(F)F)nc1)n1cc(-c2cc(-c3cnn(C4CCCC4)c3)n3nc(N)nc3c2)cn1` (single isomer, unassigned) [II-144, 5-(1-Cyclopentyl-1H-pyrazol-4-yl)-7-(1-{2-methyl-1-[6-(trifluoromethyl)pyridin-3-yl]propyl}-1H-pyrazol-4-yl)[1,2,4]triazolo[1,5-a]pyridin-2-amine] are 27 nM and 57 nM.
As for `Nc1nc2cc(-c3cnn(C(c4ccccc4)C4CCOCC4)c3)cc(-c3cnn(CC(F)(F)F)c3)n2n1` (single isomer, unassigned) [II-147, 7-{1-[Phenyl(tetrahydro-2H-pyran-4-yl)methyl]-1H-pyrazol-4-yl}-5-[1-(2,2,2-trifluoroethyl)-1H-pyrazol-4-yl][1,2,4]triazolo[1,5-a]pyridin-2-amine], the IC50 turned out to be 2.3 nM at DLK and 73 nM on LZK.
In the case of `Nc1nc2cc(-c3cnn(C(c4ccccc4)C4CCOCC4)c3)cc(-c3cnn(CC(F)(F)F)c3)n2n1` (single isomer, unassigned) [II-148, 7-{1-[Phenyl(tetrahydro-2H-pyran-4-yl)methyl]-1H-pyrazol-4-yl}-5-[1-(2,2,2-trifluoroethyl)-1H-pyrazol-4-yl][1,2,4]triazolo[1,5-a]pyridin-2-amine], the IC50 at DLK amounted to 22 nM; against LZK, 170 nM.
For the compound `Nc1nc2cc(-c3cnn(C(c4ccc(C(F)(F)F)nc4)C4CCOCC4)c3)cc(-c3cnn(CC(F)(F)F)c3)n2n1` (single isomer, unassigned) [II-150, 7-(1-{Tetrahydro-2H-pyran-4-yl[6-(trifluoromethyl)pyridin-3-yl]methyl}-1H-pyrazol-4-yl)-5-[1-(2,2,2-trifluoroethyl)-1H-pyrazol-4-yl][1,2,4]triazolo[1,5-a]pyridin-2-amine], the IC50 worked out at 1.4 nM at DLK and 4.9 nM on LZK.
Regarding `Nc1nc2cc(-c3cnn(C(c4ccc(C(F)(F)F)nc4)C4CCOCC4)c3)cc(-c3cnn(CC(F)(F)F)c3)n2n1` (single isomer, unassigned) [II-151, 7-(1-{Tetrahydro-2H-pyran-4-yl[6-(trifluoromethyl)pyridin-3-yl]methyl}-1H-pyrazol-4-yl)-5-[1-(2,2,2-trifluoroethyl)-1H-pyrazol-4-yl][1,2,4]triazolo[1,5-a]pyridin-2-amine], the IC50 against DLK and against LZK was 11 nM each time.
Take `Nc1nc2c(-c3ccc(=O)n(C(F)F)c3)cc(-c3cnn(C(c4ccc(C(F)(F)F)nc4)C4CCOCC4)c3)cn2n1` (single isomer, unassigned) [II-154, 5-[2-Amino-6-(1-{tetrahydro-2H-pyran-4-yl[6-(trifluoromethyl)pyridin-3-yl]methyl}-1H-pyrazol-4-yl)[1,2,4]triazolo[1,5-a]pyridin-8-yl]-1-(difluoromethyl)pyridin-2(1H)-one]: the IC50 at DLK came out at 6.2 nM; on LZK, 15 nM.
For `Nc1nc2c(-c3ccc(=O)n(C(F)F)c3)cc(-c3cnn(C(c4ccc(C(F)(F)F)nc4)C4CCOCC4)c3)cn2n1` (single isomer, unassigned) [II-155, 5-[2-Amino-6-(1-{tetrahydro-2H-pyran-4-yl[6-(trifluoromethyl)pyridin-3-yl]methyl}-1H-pyrazol-4-yl)[1,2,4]triazolo[1,5-a]pyridin-8-yl]-1-(difluoromethyl)pyridin-2(1H)-one], the IC50 against DLK was found to be 1 nM; on LZK, 3.1 nM.
On the same counts, the results for `Nc1nc2c(-c3ccc(=O)n(CC(F)F)c3)cc(-c3cnn(C(c4ccc(C(F)(F)F)nc4)C4CCOCC4)c3)cn2n1` (single isomer, unassigned) [II-157, 5-[2-Amino-6-(1-{tetrahydro-2H-pyran-4-yl[6-(trifluoromethyl)pyridin-3-yl]methyl}-1H-pyrazol-4-yl)[1,2,4]triazolo[1,5-a]pyridin-8-yl]-1-(2,2-difluoroethyl)pyridin-2(1H)-one] are 5.9 nM and 12 nM.

Broadly, the IC50 is the concentration needed to halve the response being measured.
